Data taken from patent US20220411422A1, “ERBB RECEPTOR INHIBITORS” (Dizal (Jiangsu) Pharmaceutical Co., Ltd., priority 2018, published 2022).

Experiment: Clinical study on safety in patients with HER2+ MBC
Assay type: in vivo, human
Text: […] All patients had prior anti-HER2 antibody and chemotherapy treatment. Majority of patients ([…]) also had prior anti-HER2 small molecule treatment.

[1] = 200 mg (N = 5), CTCAE Grade All
[2] = HER2+ MBC patients, oral twice daily, doses tested
[3] = Total (N = 14), CTCAE Grade All

COc1cc(O[C@H]2CCN(C)CC2(F)F)c2c(Nc3ccc(Oc4ccn5ncnc5c4)c(C)c3)ncnc2c1 (single isomer, unassigned) [Compound 6]
TEAE Anaemia, patients (100 mg (N = 4), CTCAE Grade ≥3): 0 | TEAE Aspartate aminotransferase increased, patients (100 mg (N = 4), CTCAE Grade ≥3): 0 | TEAE Bilirubin conjugated increased, patients (100 mg (N = 4), CTCAE Grade ≥3): 0 | TEAE Blood bilirubin increased, patients (100 mg (N = 4), CTCAE Grade ≥3): 0 | TEAE Blood bilirubin unconjugated increased, patients (100 mg (N = 4), CTCAE Grade ≥3): 0 | TEAE Blood creatinine increased, patients (100 mg (N = 4), CTCAE Grade ≥3): 0 | TEAE Fatigue, patients (100 mg (N = 4), CTCAE Grade ≥3): 0 | TEAE Haemoglobin decreased, patients (100 mg (N = 4), CTCAE Grade ≥3): 0 | TEAE Headache, patients (100 mg (N = 4), CTCAE Grade ≥3): 0 | TEAE Lipase increased, patients (100 mg (N = 4), CTCAE Grade ≥3): 0 | TEAE Pain, patients (100 mg (N = 4), CTCAE Grade ≥3): 0 | TEAE Platelet count decreased, patients (100 mg (N = 4), CTCAE Grade ≥3): 0 | TEAE Proteinuria, patients (100 mg (N = 4), CTCAE Grade ≥3): 0 | TEAE Vomiting, patients (100 mg (N = 4), CTCAE Grade ≥3): 0 | TEAE Anaemia, patients [1]: 1 | TEAE Aspartate aminotransferase increased, patients [1]: 1 | TEAE Bilirubin conjugated increased, patients [1]: 2 | TEAE Blood bilirubin increased, patients [1]: 2 | TEAE Blood bilirubin unconjugated increased, patients [1]: 1 | TEAE Blood creatinine increased, patients [1]: 1 | TEAE Fatigue, patients [1]: 1 | TEAE Haemoglobin decreased, patients [1]: 3 | TEAE Headache, patients [1]: 1 | TEAE Lipase increased, patients [1]: 1 | TEAE Pain, patients [1]: 1 | TEAE Platelet count decreased, patients [1]: 1 | TEAE Proteinuria, patients [1]: 2 | TEAE Vomiting, patients [1]: 2 | TEAE Anaemia, patients (200 mg (N = 5), CTCAE Grade ≥3): 0 | TEAE Aspartate aminotransferase increased, patients (200 mg (N = 5), CTCAE Grade ≥3): 0 | TEAE Bilirubin conjugated increased, patients (200 mg (N = 5), CTCAE Grade ≥3): 1 | TEAE Blood bilirubin increased, patients (200 mg (N = 5), CTCAE Grade ≥3): 0 | TEAE Blood bilirubin unconjugated increased, patients (200 mg (N = 5), CTCAE Grade ≥3): 0 | TEAE Blood creatinine increased, patients (200 mg (N = 5), CTCAE Grade ≥3): 0 | TEAE Fatigue, patients (200 mg (N = 5), CTCAE Grade ≥3): 0 | TEAE Haemoglobin decreased, patients (200 mg (N = 5), CTCAE Grade ≥3): 0 | TEAE Headache, patients (200 mg (N = 5), CTCAE Grade ≥3): 0 | TEAE Lipase increased, patients (200 mg (N = 5), CTCAE Grade ≥3): 0 | TEAE Pain, patients (200 mg (N = 5), CTCAE Grade ≥3): 0 | TEAE Platelet count decreased, patients (200 mg (N = 5), CTCAE Grade ≥3): 0 | TEAE Proteinuria, patients (200 mg (N = 5), CTCAE Grade ≥3): 0 | TEAE Vomiting, patients (200 mg (N = 5), CTCAE Grade ≥3): 0 | dose limiting toxicities [2]: no dose limiting toxicities observed | tolerability [2]: well tolerated | TEAE Anaemia, patients [3]: 4 | TEAE Aspartate aminotransferase increased, patients [3]: 2 | TEAE Bilirubin conjugated increased, patients [3]: 2 | TEAE Blood bilirubin increased, patients [3]: 3 | TEAE Blood bilirubin unconjugated increased, patients [3]: 2 | TEAE Blood creatinine increased, patients [3]: 2 | TEAE Fatigue, patients [3]: 2 | TEAE Haemoglobin decreased, patients [3]: 4 | TEAE Headache, patients [3]: 4 | TEAE Lipase increased, patients [3]: 3 | TEAE Pain, patients [3]: 2 | TEAE Platelet count decreased, patients [3]: 3 | TEAE Proteinuria, patients [3]: 3 | TEAE Vomiting, patients [3]: 3 | TEAE Anaemia, patients (Total (N = 14), CTCAE Grade ≥3): 0 | TEAE Aspartate aminotransferase increased, patients (Total (N = 14), CTCAE Grade ≥3): 0 | TEAE Bilirubin conjugated increased, patients (Total (N = 14), CTCAE Grade ≥3): 1 | TEAE Blood bilirubin increased, patients (Total (N = 14), CTCAE Grade ≥3): 0 | TEAE Blood bilirubin unconjugated increased, patients (Total (N = 14), CTCAE Grade ≥3): 0 | TEAE Blood creatinine increased, patients (Total (N = 14), CTCAE Grade ≥3): 0 | TEAE Fatigue, patients (Total (N = 14), CTCAE Grade ≥3): 0 | TEAE Haemoglobin decreased, patients (Total (N = 14), CTCAE Grade ≥3): 0 | TEAE Headache, patients (Total (N = 14), CTCAE Grade ≥3): 0 | TEAE Lipase increased, patients (Total (N = 14), CTCAE Grade ≥3): 0 | TEAE Pain, patients (Total (N = 14), CTCAE Grade ≥3): 0 | TEAE Platelet count decreased, patients (Total (N = 14), CTCAE Grade ≥3): 0 | TEAE Proteinuria, patients (Total (N = 14), CTCAE Grade ≥3): 0 | TEAE Vomiting, patients (Total (N = 14), CTCAE Grade ≥3): 0
